What was measured:
Test in all cases: GloSensor forskolin-stimulated cAMP assay, NPFFR2 mutants
Assay type in all cases: cell-based
NPFFR2 mutants [1] = molecular target: T1, NPFFR2 mutants (Homo sapiens, UniProt Q9Y5X5, W393A); details: NPFFR2 W2916.52A, HEK293T, three independent experiments
T1 construct: expressed in transfected cells; host or cells: HEK293T (pcDNA3.1 NPFFR2 mutants)
Text: (§1) Figure 2 Interaction of hNPSF with NPFFR2. (A) Residues participating in the interactions between hNPSF and NPFFR2 in the transmembrane (TM) binding pocket are shown as sticks. Dashed lines indicate polar interactions and hydrogen bonds between residues. Zoomed-in views highlighting interactions of the C-terminal segment (residues −1 to −4, PQRF), middle segment (residues −5 to −8, FLFQ), and the N-terminal segment (residues −9 to −11, SQA) of hNPSF are enclosed in red, blue, and yellow boxes, respectively. (B) NPFFR2 residues interacting with hNPSF were mutated to alanine, and the impact of each mutation on the EC50 value (ΔpEC50) was investigated using a forskolin-stimulated cAMP assay, after confirming surface expression of each mutant by an ELISA-based surface expression assay (Appendix Fig. S5). Three independent experiments (with technical triplicates) were conducted for each mutant. The bar graphs represent the mean of ΔpEC50 values from each experiment, with error bars indicating SEM. Statistical analyses were performed using ordinary one-way ANOVA followed by Dunnett’s test, comparing to the wild-type response. ns (not significant, P > 0.05); *P < 0.05; **P < 0.01; ***P < 0.001. Source data are available online for this figure.
(§2) HEK293T cells were seeded at a density of 6 × 10^5 cells per well in a six-well cell culture plate (SPL) and co-transfected with expression plasmids encoding GloSensor™ and each NPFFR construct, using 1 µg to 4 µg of DNA per well according to the Lipofectamine™ 2000 Transfection Reagent (Invitrogen) protocol. After 48 h of incubation under standard conditions (37 °C, 5% CO2), the cells were detached using Accutase solution (Sigma-Aldrich) and washed with PBS. The cells were then pelleted by centrifugation, resuspended in CO2-independent medium (Gibco) supplemented with Firefly D-Luciferin (0.5 mg/ml, NanoLight), and distributed into a 96-well white plate (SPL). After a 2-hour incubation, serially diluted ligands and 0.5 μM forskolin were added to each well to detect ligand-induced signaling. Luminescence signals were measured using a Mithras LB940 instrument (Berthold) with a measurement time of 1 s per well.
(§3) Data from the GloSensor^TM cAMP signaling assays were analyzed using GraphPad Prism with a three-parameter logistic model to fit concentration-response curves for both wild-type (WT) and mutant receptors. Mutant expression levels and DNA amounts were adjusted to match WT conditions. ΔpEC50 values were calculated by subtracting the log EC50 of the WT receptor from that of each mutant. Results are presented as mean ± SEM from three independent biological replicates, each performed in duplicate or more. Error bars represent the SEM. Statistical significance was assessed using one-way ANOVA, followed by Dunnett’s tests comparisons to the WT receptor. Significance levels were reported as follows: ns (not significant, P > 0.05); *P < 0.05; **P < 0.01; ***P < 0.001.
(§4) Appendix Figure S5. GloSensorTM cAMP assays of mutants and wild-type NPFFR2.
(§5) The dose-response of cAMP assay data for each mutant (red) presented in Fig. 2B are compared against the wild-type NPFFR2 (blue). Each experiment was conducted after adjusting the mutant's expression level to that of the wild-type NPFFR2 (Appendix Fig. S3), and pcDNA3.1 was used to match the total amount of DNA transfected. Data points represent mean values from three independent experiments (each with technical triplicate), with error bars indicating SEM. Raw data were normalized to the vehicle -treated (0%) and 0.5 μM forskolin-treated (100%) responses.
(§6) (% of forskolin stimulation) […]

NPFFR2 mutants [2] = molecular target: T2, NPFFR2 mutants (Homo sapiens, UniProt Q9Y5X5, Y417A); details: NPFFR2 Y3157.35A, HEK293T, three independent experiments
T2 construct: expressed in transfected cells; host or cells: HEK293T (pcDNA3.1 NPFFR2 mutants)
Text: as §1, §2, §3, §4, §5, §6

NPFFR2 mutants [3] = molecular target: T3, NPFFR2 mutants (Homo sapiens, UniProt Q9Y5X5, I414A); details: NPFFR2 I3127.32A, HEK293T, three independent experiments
T3 construct: expressed in transfected cells; host or cells: HEK293T (pcDNA3.1 NPFFR2 mutants)
Text: as §1, §2, §3, §4, §5, §6

NPFFR2 mutants [4] = molecular target: T4, NPFFR2 mutants (Homo sapiens, UniProt Q9Y5X5, Y321A); details: NPFFR2 Y2195.38A, HEK293T, three independent experiments
T4 construct: expressed in transfected cells; host or cells: HEK293T (pcDNA3.1 NPFFR2 mutants)
Text: as §1, §2, §3, §4, §5, §6

NPFFR2 mutants [5] = molecular target: T5, NPFFR2 mutants (Homo sapiens, UniProt Q9Y5X5, R318A); details: NPFFR2 R2165.35A, HEK293T, three independent experiments
T5 construct: expressed in transfected cells; host or cells: HEK293T (pcDNA3.1 NPFFR2 mutants)
Text: as §1, §2, §3, §4, §5, §6

NPFFR2 mutants [6] = molecular target: T6, NPFFR2 mutants (Homo sapiens, UniProt Q9Y5X5, L141A); details: NPFFR2 L39NtA, HEK293T, three independent experiments
T6 construct: expressed in transfected cells; host or cells: HEK293T (pcDNA3.1 NPFFR2 mutants)
Text: as §1, §2, §3, §4, §5, §6

NPFFR2 mutants [7] = molecular target: T7, NPFFR2 mutants (Homo sapiens, UniProt Q9Y5X5, V305A); details: NPFFR2 V203ECL2A, HEK293T, three independent experiments
T7 construct: expressed in transfected cells; host or cells: HEK293T (pcDNA3.1 NPFFR2 mutants)
Text: as §1, §2, §3, §4, §5, §6

NPFFR2 mutants [8] = molecular target: T8, NPFFR2 mutants (Homo sapiens, UniProt Q9Y5X5, F425A); details: NPFFR2 F3237.43A, HEK293T, three independent experiments
T8 construct: expressed in transfected cells; host or cells: HEK293T (pcDNA3.1 NPFFR2 mutants)
Text: as §1, §2, §3, §4, §5, §6

NPFFR2 mutants [9] = molecular target: T9, NPFFR2 mutants (Homo sapiens, UniProt Q9Y5X5, N413A); details: NPFFR2 N3117.31A, HEK293T, three independent experiments
T9 construct: expressed in transfected cells; host or cells: HEK293T (pcDNA3.1 NPFFR2 mutants)
Text: as §1, §2, §3, §4, §5, §6

NPFFR2 mutants [10] = molecular target: T10, NPFFR2 mutants (Homo sapiens, UniProt Q9Y5X5, I414S); details: NPFFR2 I3127.32S, HEK293T, three independent experiments
T10 construct: expressed in transfected cells; host or cells: HEK293T (pcDNA3.1 NPFFR2 mutants)
Text: as §1, §2, §3, §4, §5, §6

T1 sequence (Q9Y5X5 103-522 W393A): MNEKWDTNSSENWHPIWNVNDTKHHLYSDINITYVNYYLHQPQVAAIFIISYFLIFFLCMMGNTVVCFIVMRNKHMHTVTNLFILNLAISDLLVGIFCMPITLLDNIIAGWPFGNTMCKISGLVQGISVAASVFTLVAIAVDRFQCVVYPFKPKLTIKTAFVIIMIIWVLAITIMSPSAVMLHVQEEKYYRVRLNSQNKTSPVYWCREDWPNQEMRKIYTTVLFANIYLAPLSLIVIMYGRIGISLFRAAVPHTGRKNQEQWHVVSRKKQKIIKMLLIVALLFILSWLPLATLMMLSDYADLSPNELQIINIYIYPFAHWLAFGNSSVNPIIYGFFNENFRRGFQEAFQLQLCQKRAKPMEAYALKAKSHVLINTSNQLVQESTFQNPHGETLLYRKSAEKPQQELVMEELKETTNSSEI
T7 sequence (Q9Y5X5 103-522 V305A): as the sequence (Q9Y5X5 103-522 W393A) above, with V203A, A291W counted along it
T4 sequence (Q9Y5X5 103-522 Y321A): as the sequence (Q9Y5X5 103-522 W393A) above, with Y219A, A291W counted along it
T8 sequence (Q9Y5X5 103-522 F425A): as the sequence (Q9Y5X5 103-522 W393A) above, with A291W, F323A counted along it
T10 sequence (Q9Y5X5 103-522 I414S): as the sequence (Q9Y5X5 103-522 W393A) above, with A291W, I312S counted along it
T5 sequence (Q9Y5X5 103-522 R318A): as the sequence (Q9Y5X5 103-522 W393A) above, with R216A, A291W counted along it
T6 sequence (Q9Y5X5 103-522 L141A): as the sequence (Q9Y5X5 103-522 W393A) above, with L39A, A291W counted along it
T2 sequence (Q9Y5X5 103-522 Y417A): as the sequence (Q9Y5X5 103-522 W393A) above, with A291W, Y315A counted along it
T3 sequence (Q9Y5X5 103-522 I414A): as the sequence (Q9Y5X5 103-522 W393A) above, with A291W, I312A counted along it
T9 sequence (Q9Y5X5 103-522 N413A): as the sequence (Q9Y5X5 103-522 W393A) above, with A291W, N311A counted along it

- Emax (NPFFR2 mutants [1]; HEK-293T): 80 ± 4%
- EC50 (NPFFR2 mutants [1]): 79.4 nM
- Emax (NPFFR2 mutants [2]; HEK-293T): 77 ± 2%
- EC50 (NPFFR2 mutants [2]): 126 nM
- Emax (NPFFR2 mutants [3]; HEK-293T): 63 ± 3%
- EC50 (NPFFR2 mutants [3]): 10 nM
- Emax (NPFFR2 mutants [4]; HEK-293T): 72 ± 3%
- EC50 (NPFFR2 mutants [4]): 100 nM
- Emax (NPFFR2 mutants [5]; HEK-293T): 85 ± 3%
- EC50 (NPFFR2 mutants [5]): 10 nM
- Emax (NPFFR2 mutants [6]; HEK-293T): 70 ± 3%
- EC50 (NPFFR2 mutants [6]): 10 nM
- Emax (NPFFR2 mutants [7]; HEK-293T): 78 ± 3%
- EC50 (NPFFR2 mutants [7]): 200 nM
- Emax (NPFFR2 mutants [8]; HEK-293T): 81 ± 3%
- EC50 (NPFFR2 mutants [8]): 398 nM
- Emax (NPFFR2 mutants [9]; HEK-293T): 69 ± 8%
- EC50 (NPFFR2 mutants [9]): 1260 nM
- Emax (NPFFR2 mutants [10]; HEK-293T): 75 ± 3%
- EC50 (NPFFR2 mutants [10]): 31.6 nM
Compound: CC(C)C[C@H](NC(=O)[C@H](Cc1ccccc1)NC(=O)[C@H](C)NC(=O)[C@H](CCC(N)=O)NC(=O)[C@@H](N)CO)C(=O)N[C@@H](Cc1ccccc1)C(=O)N[C@@H](CCC(N)=O)C(=O)N1CCC[C@H]1C(=O)N[C@@H](CCC(N)=O)C(=O)N[C@@H](CCCNC(=N)N)C(=O)N[C@@H](Cc1ccccc1)C(N)=O [hNPSF]

From publication PMC12069643, “Structural insights into the selective recognition of RF-amide peptides by neuropeptide FF receptor 2” (EMBO Reports, 2025)
